In PubChem BioAssay (NCI):
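Dose response: 5 concentrations. Exposure: 48 h. Format: 96-well plates. Endpoint: linear interpolation; highest concentration if not reached. GI50 = concentration required for 50% inhibition of growth. TGI: total growth inhibition.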

Legend:
Test in all cases: NCI-60 cell line screen, 48 h
PC-3 prostate = tested on: PC-3 prostate
COLO 205 colon = tested on: COLO 205 colon
A498 renal = tested on: A498 renal
LOX IMVI melanoma = tested on: LOX IMVI melanoma
MDA-MB-435 = tested on: MDA-MB-435
KM12 colon = tested on: KM12 colon
NCI-H460 lung = tested on: NCI-H460 lung
NCI-H23 lung = tested on: NCI-H23 lung
HCT-15 colon = tested on: HCT-15 colon
MCF7 breast = tested on: MCF7 breast
SN12C renal = tested on: SN12C renal
SW-620 colon = tested on: SW-620 colon
HL-60(TB) leukemia = tested on: HL-60(TB) leukemia
TK-10 renal = tested on: TK-10 renal
SK-OV-3 ovarian = tested on: SK-OV-3 ovarian
RPMI-8226 leukemia = tested on: RPMI-8226 leukemia
OVCAR-3 ovarian = tested on: OVCAR-3 ovarian
SF-539 CNS = tested on: SF-539 CNS
SK-MEL-5 melanoma = tested on: SK-MEL-5 melanoma
OVCAR-5 ovarian = tested on: OVCAR-5 ovarian
SK-MEL-2 melanoma = tested on: SK-MEL-2 melanoma
NCI-H522 lung = tested on: NCI-H522 lung
HS 578T breast = tested on: HS 578T breast
DU-145 prostate = tested on: DU-145 prostate
ACHN renal = tested on: ACHN renal
HCC-2998 colon = tested on: HCC-2998 colon
SF-295 CNS = tested on: SF-295 CNS
IGROV1 ovarian = tested on: IGROV1 ovarian
UACC-62 melanoma = tested on: UACC-62 melanoma
RXF 393 renal = tested on: RXF 393 renal
OVCAR-8 ovarian = tested on: OVCAR-8 ovarian
MDA-MB-468 breast = tested on: MDA-MB-468 breast
K-562 leukemia = tested on: K-562 leukemia
SNB-75 CNS = tested on: SNB-75 CNS
OVCAR-4 ovarian = tested on: OVCAR-4 ovarian
CAKI-1 renal = tested on: CAKI-1 renal
SNB-19 CNS = tested on: SNB-19 CNS
SF-268 CNS = tested on: SF-268 CNS
MOLT-4 leukemia = tested on: MOLT-4 leukemia
A549 NSCLC = tested on: A549 NSCLC
SK-MEL-28 melanoma = tested on: SK-MEL-28 melanoma
UACC-257 melanoma = tested on: UACC-257 melanoma
HOP-62 NSCLC = tested on: HOP-62 NSCLC
NCI-H226 lung = tested on: NCI-H226 lung
HCT-116 colon = tested on: HCT-116 colon
786-0 renal = tested on: 786-0 renal
T-47D breast = tested on: T-47D breast
HT29 colon = tested on: HT29 colon
EKVX NSCLC = tested on: EKVX NSCLC
MALME-3M melanoma = tested on: MALME-3M melanoma
M14 melanoma = tested on: M14 melanoma
CCRF-CEM leukemia = tested on: CCRF-CEM leukemia
BT-549 breast = tested on: BT-549 breast
HOP-92 NSCLC = tested on: HOP-92 NSCLC
NCI/ADR-RES ovarian = tested on: NCI/ADR-RES ovarian
U251 CNS = tested on: U251 CNS

`COc1ccc2[nH]c(=O)c(CSc3nccc(-c4ccc(Cl)cc4)n3)cc2c1` was tested, and the GI50 (PC-3 prostate) was 19 µM, the TGI (PC-3 prostate) was > 100 µM and the GI50 (COLO 205 colon) was 23.9 µM. For the same compound, the TGI (COLO 205 colon) was 61.7 µM, the GI50 (A498 renal) was 23.8 µM and the TGI (A498 renal) was 63 µM. It also gave a GI50 (LOX IMVI melanoma) of 17.1 µM, a TGI (LOX IMVI melanoma) of 34.2 µM and a GI50 (MDA-MB-435) of 30 µM. For the same compound, the TGI (MDA-MB-435) was > 100 µM, the GI50 (KM12 colon) was 29.2 µM and the TGI (KM12 colon) was 90.9 µM. For the same compound, the GI50 (NCI-H460 lung) was 17.2 µM, the TGI (NCI-H460 lung) was 35.4 µM and the GI50 (NCI-H23 lung) was 18.9 µM. The TGI (NCI-H23 lung) was 42.5 µM, the GI50 (HCT-15 colon) was 22 µM and the TGI (HCT-15 colon) was 65.8 µM. The GI50 (MCF7 breast) was 17 µM, the TGI (MCF7 breast) was 33.5 µM and the GI50 (SN12C renal) was 15.2 µM. It also gave a TGI (SN12C renal) of 32.9 µM, a GI50 (SW-620 colon) of 20.6 µM and a TGI (SW-620 colon) of 45.9 µM. The GI50 (HL-60(TB) leukemia) was > 100 µM, the TGI (HL-60(TB) leukemia) was > 100 µM and the GI50 (TK-10 renal) was 16.6 µM. The TGI (TK-10 renal) was 36.1 µM, the GI50 (SK-OV-3 ovarian) was 39.3 µM and the TGI (SK-OV-3 ovarian) was > 100 µM. The GI50 (RPMI-8226 leukemia) was 11.7 µM, the TGI (RPMI-8226 leukemia) was 39.5 µM and the GI50 (OVCAR-3 ovarian) was 18.6 µM. For the same compound, the TGI (OVCAR-3 ovarian) was 39.1 µM, the GI50 (SF-539 CNS) was 14.9 µM and the TGI (SF-539 CNS) was 29.7 µM. It also gave a GI50 (SK-MEL-5 melanoma) of 13.6 µM, a TGI (SK-MEL-5 melanoma) of 31.3 µM and a GI50 (OVCAR-5 ovarian) of 24.7 µM. For the same compound, the TGI (OVCAR-5 ovarian) was 93 µM, the GI50 (SK-MEL-2 melanoma) was 18.1 µM and the TGI (SK-MEL-2 melanoma) was 44 µM. For the same compound, the GI50 (NCI-H522 lung) was 14.8 µM, the TGI (NCI-H522 lung) was 28.5 µM and the GI50 (HS 578T breast) was 26 µM. For the same compound, the TGI (HS 578T breast) was > 100 µM, the GI50 (DU-145 prostate) was 26 µM and the TGI (DU-145 prostate) was > 100 µM. For the same compound, the GI50 (ACHN renal) was 16.8 µM, the TGI (ACHN renal) was 40.1 µM and the GI50 (HCC-2998 colon) was 22.5 µM. The TGI (HCC-2998 colon) was 56.3 µM, the GI50 (SF-295 CNS) was 14.4 µM and the TGI (SF-295 CNS) was 28.4 µM. It also gave a GI50 (IGROV1 ovarian) of 25.5 µM, a TGI (IGROV1 ovarian) of 89.7 µM and a GI50 (UACC-62 melanoma) of 15.3 µM. For the same compound, the TGI (UACC-62 melanoma) was 78.3 µM, the GI50 (RXF 393 renal) was 14.4 µM and the TGI (RXF 393 renal) was 28.5 µM. For the same compound, the GI50 (OVCAR-8 ovarian) was 16.8 µM, the TGI (OVCAR-8 ovarian) was 32.4 µM and the GI50 (MDA-MB-468 breast) was 12.5 µM. The TGI (MDA-MB-468 breast) was 26.1 µM, the GI50 (K-562 leukemia) was 27.8 µM and the TGI (K-562 leukemia) was > 100 µM. For the same compound, the GI50 (SNB-75 CNS) was 23.7 µM, the TGI (SNB-75 CNS) was 65.1 µM and the GI50 (OVCAR-4 ovarian) was 18.5 µM. For the same compound, the TGI (OVCAR-4 ovarian) was 64.9 µM, the GI50 (CAKI-1 renal) was 15.8 µM and the TGI (CAKI-1 renal) was 37.7 µM. The GI50 (SNB-19 CNS) was 18 µM, the TGI (SNB-19 CNS) was 43.5 µM and the GI50 (SF-268 CNS) was 25.4 µM. The TGI (SF-268 CNS) was > 100 µM, the GI50 (MOLT-4 leukemia) was 12 µM and the TGI (MOLT-4 leukemia) was > 100 µM. It also gave a GI50 (A549 NSCLC) of 14.6 µM, a TGI (A549 NSCLC) of 30.8 µM and a GI50 (SK-MEL-28 melanoma) of 20.6 µM. It also gave a TGI (SK-MEL-28 melanoma) of 51.6 µM, a GI50 (UACC-257 melanoma) of 22.2 µM and a TGI (UACC-257 melanoma) of 55.6 µM. For the same compound, the GI50 (HOP-62 NSCLC) was 16.5 µM, the TGI (HOP-62 NSCLC) was 34.3 µM and the GI50 (NCI-H226 lung) was 18.5 µM. The TGI (NCI-H226 lung) was 59.9 µM, the GI50 (HCT-116 colon) was 13 µM and the TGI (HCT-116 colon) was 26.8 µM. For the same compound, the GI50 (786-0 renal) was 13.8 µM, the TGI (786-0 renal) was 26.7 µM and the GI50 (T-47D breast) was 13.7 µM. For the same compound, the TGI (T-47D breast) was 31 µM, the GI50 (HT29 colon) was 28.9 µM and the TGI (HT29 colon) was > 100 µM. The GI50 (EKVX NSCLC) was 31.2 µM, the TGI (EKVX NSCLC) was > 100 µM and the GI50 (MALME-3M melanoma) was 18.6 µM. It also gave a TGI (MALME-3M melanoma) of 38.6 µM, a GI50 (M14 melanoma) of 17.6 µM and a TGI (M14 melanoma) of 34.2 µM. The GI50 (CCRF-CEM leukemia) was 77.1 µM, the TGI (CCRF-CEM leukemia) was > 100 µM and the GI50 (BT-549 breast) was 20 µM. The TGI (BT-549 breast) was > 100 µM, the GI50 (HOP-92 NSCLC) was 6.22 µM and the TGI (HOP-92 NSCLC) was 32.5 µM. It also gave a GI50 (NCI/ADR-RES ovarian) of 15.4 µM, a TGI (NCI/ADR-RES ovarian) of 38.7 µM and a GI50 (U251 CNS) of 15.2 µM. The TGI (U251 CNS) was 28.8 µM.
